Results from patent US20240158370A1, “CK1 alpha AND DUAL CK1 alpha / GSPT1 DEGRADING COMPOUNDS” (Innovo Therapeutics, Inc., priority 2022, published 2024).

Tests used:
[1] = target: T1, CK1α (Homo sapiens, UniProt P48729+Q96SW2); test: HiBiT degradation assay, CK1α, Procedure A; format: cell-based; conditions: six hours
T1 construct: CSNK1A1-HiBit KI HEK293(LgBit) Cells; host or cells: HEK293(LgBit) knock-in cells
How it was run: (§1)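 Luminescence from HiBiT lytic detection reports remaining tagged protein after cells sit six hours at 37° C with compound across ten concentrations (10 μM down to 0.005 μM, 0.1% DMSO). A 4-parameter curve fit gives DC50 and Ymin.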

[2] = target: GSPT1 (Homo sapiens, UniProt P15170+Q96SW2); test: HiBiT degradation assay, GSPT1, Procedure A; format: cell-based; parameters: HiBit-GSPT1 KI HEK293(LgBit) Cells; host or cells: HEK293(LgBit) knock-in cells; conditions: six hours
How it was run: as §1

GSPT1, sequence (P15170 whole entry): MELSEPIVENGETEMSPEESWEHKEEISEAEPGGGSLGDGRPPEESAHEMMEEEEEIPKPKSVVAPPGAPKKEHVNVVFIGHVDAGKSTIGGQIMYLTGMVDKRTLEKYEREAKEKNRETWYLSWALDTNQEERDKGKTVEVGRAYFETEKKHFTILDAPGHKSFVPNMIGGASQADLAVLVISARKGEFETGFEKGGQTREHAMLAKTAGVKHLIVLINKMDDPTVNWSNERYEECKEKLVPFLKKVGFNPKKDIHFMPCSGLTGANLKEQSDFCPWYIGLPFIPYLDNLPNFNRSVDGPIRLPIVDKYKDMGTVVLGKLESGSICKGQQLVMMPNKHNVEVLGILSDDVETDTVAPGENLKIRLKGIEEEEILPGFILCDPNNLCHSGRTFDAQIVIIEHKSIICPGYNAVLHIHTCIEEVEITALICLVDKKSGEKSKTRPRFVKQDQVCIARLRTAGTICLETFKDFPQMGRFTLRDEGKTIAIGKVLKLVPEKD
GSPT1, sequence (Q96SW2 whole entry): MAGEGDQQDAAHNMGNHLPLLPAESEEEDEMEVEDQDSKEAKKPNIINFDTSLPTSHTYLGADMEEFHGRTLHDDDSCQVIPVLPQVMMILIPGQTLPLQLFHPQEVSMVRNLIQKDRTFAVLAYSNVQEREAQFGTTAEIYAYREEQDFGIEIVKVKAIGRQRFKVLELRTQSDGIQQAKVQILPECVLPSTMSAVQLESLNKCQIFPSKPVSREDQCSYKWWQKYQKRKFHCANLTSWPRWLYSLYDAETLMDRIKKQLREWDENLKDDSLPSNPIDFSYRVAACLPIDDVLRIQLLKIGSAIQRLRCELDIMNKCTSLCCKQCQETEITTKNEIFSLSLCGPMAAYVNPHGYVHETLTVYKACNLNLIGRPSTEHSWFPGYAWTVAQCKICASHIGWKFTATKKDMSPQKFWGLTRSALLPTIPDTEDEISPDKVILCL
GSPT1, sequence (Q16531 whole entry partner): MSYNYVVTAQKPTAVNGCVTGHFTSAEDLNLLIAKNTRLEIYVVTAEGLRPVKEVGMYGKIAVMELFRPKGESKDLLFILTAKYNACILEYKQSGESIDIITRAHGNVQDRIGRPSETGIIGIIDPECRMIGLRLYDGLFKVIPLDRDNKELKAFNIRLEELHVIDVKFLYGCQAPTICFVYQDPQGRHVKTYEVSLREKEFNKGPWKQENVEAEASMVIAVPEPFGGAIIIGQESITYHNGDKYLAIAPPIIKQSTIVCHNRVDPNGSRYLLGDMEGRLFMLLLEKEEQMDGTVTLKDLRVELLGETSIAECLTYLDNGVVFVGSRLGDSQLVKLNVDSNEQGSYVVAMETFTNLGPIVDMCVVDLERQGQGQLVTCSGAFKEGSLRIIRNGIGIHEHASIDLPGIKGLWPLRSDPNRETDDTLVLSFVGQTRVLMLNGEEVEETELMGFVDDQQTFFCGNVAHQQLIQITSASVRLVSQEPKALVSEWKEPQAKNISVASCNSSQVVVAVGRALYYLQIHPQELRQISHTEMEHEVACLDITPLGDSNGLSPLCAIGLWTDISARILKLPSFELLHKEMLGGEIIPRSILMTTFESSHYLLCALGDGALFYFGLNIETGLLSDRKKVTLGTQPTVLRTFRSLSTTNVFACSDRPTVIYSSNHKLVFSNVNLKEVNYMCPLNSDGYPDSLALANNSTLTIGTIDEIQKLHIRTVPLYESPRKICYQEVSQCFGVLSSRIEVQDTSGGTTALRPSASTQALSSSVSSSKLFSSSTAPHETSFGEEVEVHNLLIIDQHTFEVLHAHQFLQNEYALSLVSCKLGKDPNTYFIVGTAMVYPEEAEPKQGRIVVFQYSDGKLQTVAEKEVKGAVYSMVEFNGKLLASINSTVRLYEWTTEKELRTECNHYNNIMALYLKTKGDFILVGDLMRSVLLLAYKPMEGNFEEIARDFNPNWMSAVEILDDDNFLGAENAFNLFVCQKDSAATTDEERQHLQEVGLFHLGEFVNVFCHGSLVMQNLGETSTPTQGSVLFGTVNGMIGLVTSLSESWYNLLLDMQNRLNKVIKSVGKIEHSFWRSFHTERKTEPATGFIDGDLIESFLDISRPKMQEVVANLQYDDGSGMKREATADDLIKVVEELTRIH
T1 sequence (P48729 whole entry): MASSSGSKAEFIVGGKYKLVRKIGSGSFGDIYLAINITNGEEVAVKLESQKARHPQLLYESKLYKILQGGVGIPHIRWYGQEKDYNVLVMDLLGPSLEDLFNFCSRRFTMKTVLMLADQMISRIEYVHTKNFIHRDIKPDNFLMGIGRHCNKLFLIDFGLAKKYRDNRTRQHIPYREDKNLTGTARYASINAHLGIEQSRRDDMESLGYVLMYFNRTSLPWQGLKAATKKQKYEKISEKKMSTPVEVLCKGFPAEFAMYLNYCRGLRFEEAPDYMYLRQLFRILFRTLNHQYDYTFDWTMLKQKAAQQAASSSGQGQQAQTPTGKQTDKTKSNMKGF
T1 sequence (Q96SW2 whole entry): as the sequence (Q96SW2 whole entry) above
T1 sequence (Q16531 whole entry partner): as the sequence (Q16531 whole entry partner) above

Compound | CK1α Ymin [1] | DC50 [1] [µM] | DC50 [2] [µM] | GSPT1 Ymin [2]
Cn1ncc(-c2ccc3c(c2)CN(C2CCC(=O)NC2=O)C3=O)c1-c1cnn(-c2ccccc2)c1 (stereo not shown) [Example 395] | F (F = >75-100% remaining) | < 0.025 | < 0.025 | E (E = >25-75% remaining)
Cn1ncc(-c2ccc3c(c2)CN(C2CCC(=O)NC2=O)C3=O)c1-c1ccn(-c2ccc(F)cc2)n1 (stereo not shown) [Example 396] | E (E = >25-75% remaining) | < 0.025 | ≥ 0.025 | F (F = >75-100% remaining)
Cc1ccc(-c2c(-c3ccc4c(c3)CN(C3CCC(=O)NC3=O)C4=O)ncn2C)cn1 (stereo not shown) [Example 397] | D (D = >10- 25% remaining) | ≥ 0.025 | ≥ 0.025 | F (F = >75-100% remaining)
Cc1cc(-c2c(-c3ccc4c(c3)CN(C3CCC(=O)NC3=O)C4=O)ncn2C)ccn1 (stereo not shown) [Example 398] | D (D = >10- 25% remaining) | < 0.025 | < 0.025 | F (F = >75-100% remaining)
Cn1cnc(-c2ccc3c(c2)CN(C2CCC(=O)NC2=O)C3=O)c1-c1ccc(=O)n(C)c1 (stereo not shown) [Example 400] | D (D = >10- 25% remaining) | ≥ 0.025 | ≥ 0.025 | F (F = >75-100% remaining)
Cn1cnc(-c2ccc3c(c2)CN(C2CCC(=O)NC2=O)C3=O)c1-c1ccc2scnc2c1 (stereo not shown) [Example 402] | E (E = >25-75% remaining) | < 0.025 | ≥ 0.025 | F (F = >75-100% remaining)
Cn1cnc(-c2ccc3c(c2)CN(C2CCC(=O)NC2=O)C3=O)c1-c1ccc(N2CCCCC2)nc1 (stereo not shown) [Example 403] | D (D = >10- 25% remaining) | < 0.025 | ≥ 0.025 | F (F = >75-100% remaining)
Cn1cnc(-c2ccc3c(c2)CN(C2CCC(=O)NC2=O)C3=O)c1-c1ccc(N2CCOCC2)nc1 (stereo not shown) [Example 404] | E (E = >25-75% remaining) | ≥ 0.025 | ≥ 0.025 | F (F = >75-100% remaining)
Cn1cnc(-c2ccc3c(c2)CN(C2CCC(=O)NC2=O)C3=O)c1-c1cnn(Cc2ccccc2)c1 (stereo not shown) [Example 406] | D (D = >10- 25% remaining) | ≥ 0.025 | < 0.025 | E (E = >25-75% remaining)
Cc1c(-c2c(-c3ccc4c(c3)CN(C3CCC(=O)NC3=O)C4=O)ncn2C)cnn1-c1ccccc1 (stereo not shown) [Example 407] | C (C = 0-10% remaining) | < 0.025 | ≥ 0.025 | E (E = >25-75% remaining)
CN1CCN(c2cccc(-c3c(-c4ccc5c(c4)CN(C4CCC(=O)NC4=O)C5=O)ncn3C)c2)CC1 (stereo not shown) [Example 408] | E (E = >25-75% remaining) | < 0.025 | ≥ 0.025 | 
Cn1ncc(-c2ccc3c(c2)CN(C2CCC(=O)NC2=O)C3=O)c1-c1cccc(CCCCCCc2ccccc2)c1 (stereo not shown) [Example 409] | E (E = >25-75% remaining) | ≥ 0.025 | ≥ 0.025 | F (F = >75-100% remaining)
CCOC(=O)Cc1cccc(-c2c(-c3ccc4c(c3)CN(C3CCC(=O)NC3=O)C4=O)cnn2C)c1 (stereo not shown) [Example 410] | E (E = >25-75% remaining) | < 0.025 | ≥ 0.025 | F (F = >75-100% remaining)
Cn1ncc(-c2ccc3c(c2)CN(C2CCC(=O)NC2=O)C3=O)c1-c1ccc(C2CCNCC2)cc1 (stereo not shown) [Example 413] | E (E = >25-75% remaining) | ≥ 0.025 | ≥ 0.025 | F (F = >75-100% remaining)
Cn1ncc(-c2ccc3c(c2)CN(C2CCC(=O)NC2=O)C3=O)c1-c1ccc(CN2CCNCC2)cc1 (stereo not shown) [Example 414] | E (E = >25-75% remaining) | ≥ 0.025 | ≥ 0.025 | F (F = >75-100% remaining)
Cn1cc(-c2ccc3c(c2)CN(C2CCC(=O)NC2=O)C3=O)nc1C1OCCCO1 (stereo not shown) [Example 415, 3-(5-(2-(1,3-dioxan-2-yl)-1-methyl-1H-imidazol-4-yl)-1-oxoisoindolin-2-yl) piperidine-2,6-dione] | E (E = >25-75% remaining) | < 0.025 | ≥ 0.025 | F (F = >75-100% remaining)
COc1ccc(-c2c(-c3ccc4c(c3)CN(C3CCC(=O)NC3=O)C4=O)cnn2C(F)F)cc1F (stereo not shown) [Example 417, 3-(5-(1-(difluoromethyl)-5-(3-fluoro-4-methoxyphenyl)-1H-pyrazol-4-yl)-1-oxoisoindolin-2-yl)piperidine-2,6-dione] | D (D = >10- 25% remaining) | < 0.025 | ≥ 0.025 | F (F = >75-100% remaining)
COc1ccc(-c2c(-c3ccc4c(c3)CN(C3CCC(=O)NC3=O)C4=O)cnn2C(F)F)cc1 (stereo not shown) [Example 418, 3-(5-(1-(difluoromethyl)-5-(4-methoxyphenyl)-1H-pyrazol-4-yl)-1-oxoisoindolin-2-yl)piperidine-2,6-dione] | C (C = 0-10% remaining) | < 0.025 | ≥ 0.025 | E (E = >25-75% remaining)
Cn1c(C2OCCCO2)nc(-c2ccc3c(c2)CN(C2CCC(=O)NC2=O)C3=O)c1-c1ccccc1 (stereo not shown) [Example 419, 3-(5-(2-(1,3-dioxan-2-yl)-1-methyl-5-phenyl-1H-imidazol-4-yl)-1-oxoisoindolin-2-yl)piperidine-2,6-dione] | C (C = 0-10% remaining) | < 0.025 | ≥ 0.025 | F (F = >75-100% remaining)
O=C1CCC(N2Cc3cc(-c4cn(C(F)F)nc4-c4ccc5c(c4)CCO5)ccc3C2=O)C(=O)N1 (stereo not shown) [Example 423, 3-(5-(1-(difluoromethyl)-3-(2,3-dihydrobenzofuran-5-yl)-1H-pyrazole-4-yl)-1-oxoisoindolin-2-yl)piperidine-2,6-dione] | D (D = >10- 25% remaining) | < 0.025 | ≥ 0.025 | F (F = >75-100% remaining)
O=C1CCC(N2Cc3cc(-c4cnn(C(F)F)c4-c4ccc5c(c4)CCO5)ccc3C2=O)C(=O)N1 (stereo not shown) [Example 424, 3-(5-(1-(difluoromethyl)-5-(2,3-dihydrobenzofuran-5-yl)-1H-pyrazol-4-yl)-1-oxoisoindolin-2-yl)piperidine-2,6-dione] | D (D = >10- 25% remaining) | < 0.025 | ≥ 0.025 | F (F = >75-100% remaining)

Other lines, results leading:

CK1α Ymin [1] | DC50 [1] [µM] | DC50 [2] [µM] | GSPT1 Ymin [2] | Compound
D (D = >10- 25% remaining) | < 0.025 | ≥ 0.025 | F (F = >75-100% remaining) | Cn1cnc(-c2ccc3c(c2)CN(C2CCC(=O)NC2=O)C3=O)c1-c1cccc(C#N)n1 (stereo not shown) [Example 399]
C (C = 0-10% remaining) | < 0.025 | ≥ 0.025 | E (E = >25-75% remaining) | Cn1cnc(-c2ccc3c(c2)CN(C2CCC(=O)NC2=O)C3=O)c1-c1ccc2nc[nH]c2c1 (stereo not shown) [Example 401]
F (F = >75-100% remaining) | < 0.025 | < 0.025 | F (F = >75-100% remaining) | Cn1cnc(-c2ccc3c(c2)CN(C2CCC(=O)NC2=O)C3=O)c1-c1cncc(OCc2ccccc2)c1 (stereo not shown) [Example 405]
E (E = >25-75% remaining) | < 0.025 | ≥ 0.025 | F (F = >75-100% remaining) | COCCCOc1ccc(-c2c(-c3ccc4c(c3)CN(C3CCC(=O)NC3=O)C4=O)cnn2C)cc1 (stereo not shown) [Example 411]
E (E = >25-75% remaining) | ≥ 0.025 | ≥ 0.025 | F (F = >75-100% remaining) | Cn1ncc(-c2ccc3c(c2)CN(C2CCC(=O)NC2=O)C3=O)c1-c1cccc(N2CCNCC2)c1 (stereo not shown) [Example 412]
E (E = >25-75% remaining) | < 0.025 | ≥ 0.025 | F (F = >75-100% remaining) | Cn1ncc(-c2ccc3c(c2)CN(C2CCC(=O)NC2=O)C3=O)c1-c1ccc(OC(F)F)cc1 (stereo not shown) [Example 416, 3-(5-(5-(4-(difluoromethoxy)phenyl)-1-methyl-1H-pyrazol-4-yl)-1-oxoisoindolin-2-yl)piperidine-2,6-dione]
C (C = 0-10% remaining) | < 0.025 | ≥ 0.025 | F (F = >75-100% remaining) | Cn1c(C2CCOCC2)nc(-c2ccc3c(c2)CN(C2CCC(=O)NC2=O)C3=O)c1-c1cccnc1 (stereo not shown) [Example 420, 3-(5-(1-methyl-5-(pyridin-3-yl)-2-(tetrahydro-2H-pyran-4-yl)-1H-imidazol-4-yl)-1-oxoisoindolin-2-yl)piperidine-2,6-dione]
D (D = >10- 25% remaining) | < 0.025 | ≥ 0.025 |  | COc1ccc(-c2nn(C(F)F)cc2-c2ccc3c(c2)CN(C2CCC(=O)NC2=O)C3=O)c(Cl)c1 (stereo not shown) [Example 425, 3-(5-(3-(2-chloro-4-methoxyphenyl)-1-(difluoromethyl)-1H-pyrazol-4-yl)-1-oxoisoindolin-2-yl)piperidine-2,6-dione]
D (D = >10- 25% remaining) | < 0.025 | ≥ 0.025 | F (F = >75-100% remaining) | CC(C)n1ncc(-c2ccc3c(c2)CN(C2CCC(=O)NC2=O)C3=O)c1-c1ccccc1 (stereo not shown) [Example 426, 3-(5-(1-isopropyl-5-phenyl-1H-pyrazol-4-yl)-1-oxoisoindolin-2-yl)piperidine-2,6-dione]
